The target in test [1] is T1, SARS-CoV-2 3CL^pro (Severe acute respiratory syndrome coronavirus 2, UniProt P0DTD1). The test is described as follows: biochemical.
The target of test [2] is T1, SARS-CoV-2 3CL^pro. The test is described as follows: Inactivation kinetic analyses against SARS-CoV-2 3CL^pro. It counts as biochemical.
Setting [3] is: IC50 (μM) 3 min, 3 min preincubation.
[4] abbreviates: IC50 (μM) 63 min, 63 min preincubation.

Broadly, the IC50 is the midpoint of a concentration-inhibition curve. Lower therefore signals inhibition by little substance. Regarding `O=c1cc(-c2ccc(O)cc2)oc2cc(O)cc(O)c12` [apigenin], the Ratio at SARS-CoV-2 3CL^pro [1] came to 3.62. Further, the IC50 against SARS-CoV-2 3CL^pro [1] (setting [3]) was 115 µM; against SARS-CoV-2 3CL^pro [1] (setting [4]) it was 31.7 µM.
As to `O=c1cc(-c2ccc(O)c(O)c2)oc2cc(O)cc(O)c12` [luteolin], at SARS-CoV-2 3CL^pro [1], the Ratio amounted to 10.57. Moreover, the IC50 on SARS-CoV-2 3CL^pro [1] (setting [3]) stood at 195 µM; on SARS-CoV-2 3CL^pro [1] (setting [4]), 18.4 µM.
Take `COc1cc(O)c2c(=O)cc(-c3ccc(OC)c(-c4c(O)cc(O)c5c(=O)cc(-c6ccc(O)cc6)oc45)c3)oc2c1` [ginkgetin]: at SARS-CoV-2 3CL^pro [1], the Ratio was 10.32. Moreover, the IC50 against SARS-CoV-2 3CL^pro [1] (setting [3]) amounted to 76.5 µM; on SARS-CoV-2 3CL^pro [1] (setting [4]) it was 7.42 µM.
Broadly, the kinact is the maximal first-order rate at which the target is inactivated. For `Oc1cc(O)c2c(c1)O[C@H](c1cc(O)c(O)c(O)c1)[C@@H](O)C2` [gallocatechin], on SARS-CoV-2 3CL^pro [1], the Ratio came to 3.30. Moreover, the IC50 against SARS-CoV-2 3CL^pro [1] (setting [3]) came to 3.23 µM; against SARS-CoV-2 3CL^pro [1] (setting [4]) it was 0.98 µM. This compound also yielded a Ki on SARS-CoV-2 3CL^pro [2] of 2.52 µM. The kinact on SARS-CoV-2 3CL^pro [2] (read-out: Kinact (min^−1)) is 0.03 min⁻¹.
As to `Oc1cc(O)c2c(c1)O[C@H](c1ccc(O)c(O)c1)[C@H](O)C2` [epicatechin], the Ratio at SARS-CoV-2 3CL^pro [1] turned out to be 6.22. The IC50 on SARS-CoV-2 3CL^pro [1] (setting [3]) came to 70.6 µM; at SARS-CoV-2 3CL^pro [1] (setting [4]), 11.3 µM.
With `COc1ccc(-c2cc(=O)c3c(O)cc(O)c(-c4cc(-c5cc(=O)c6c(O)cc(O)cc6o5)ccc4OC)c3o2)cc1` [isoginkgetin], the Ratio on SARS-CoV-2 3CL^pro [1] worked out at 2.01. Further, the IC50 against SARS-CoV-2 3CL^pro [1] (setting [3]) came out at 70.8 µM; on SARS-CoV-2 3CL^pro [1] (setting [4]) it was 35.2 µM.
`O=c1cc(-c2ccc(O)c(-c3c(O)cc(O)c4c(=O)cc(-c5ccc(O)cc5)oc34)c2)oc2cc(O)cc(O)c12` [amentoflavone]: at SARS-CoV-2 3CL^pro [1], the Ratio is on record as 1.92. Besides, the IC50 amounted to 82.1 µM against SARS-CoV-2 3CL^pro [1] (setting [3]) and 42.9 µM against SARS-CoV-2 3CL^pro [1] (setting [4]).
The matching figures for `COc1ccc(-c2cc(=O)c3c(O)cc(O)cc3o2)cc1-c1c(O)cc(O)c2c(=O)cc(-c3ccc(O)cc3)oc12` [bilobetin]: 3.54, 32.1 µM and 9.06 µM.
